Read-outs that look alike come from different tables or passages of the source.

What all share (type): biochemical
One assay deals with RIPK2 (Homo sapiens, UniProt O43353). The experiment in a line: Kinase profiling RIPK2. The following applies: read-out: residual kinase activity, RIPK2. The source says: (§1) Any value less that 25 is considered to be highly significant inhibition.
A further assay addresses p38b MAPK (Homo sapiens, UniProt Q15759). The experiment in a line: Kinase profiling p38b MAPK. The settings on record: read-out: residual kinase activity, p38b MAPK.
Text: as §1

In a further assay the target is PRK2 (Homo sapiens, UniProt Q16513). As to the kind of experiment: Kinase profiling PRK2. The settings on record: read-out: residual kinase activity, PRK2.
PRK2, sequence (Q16513 whole entry, species assumed): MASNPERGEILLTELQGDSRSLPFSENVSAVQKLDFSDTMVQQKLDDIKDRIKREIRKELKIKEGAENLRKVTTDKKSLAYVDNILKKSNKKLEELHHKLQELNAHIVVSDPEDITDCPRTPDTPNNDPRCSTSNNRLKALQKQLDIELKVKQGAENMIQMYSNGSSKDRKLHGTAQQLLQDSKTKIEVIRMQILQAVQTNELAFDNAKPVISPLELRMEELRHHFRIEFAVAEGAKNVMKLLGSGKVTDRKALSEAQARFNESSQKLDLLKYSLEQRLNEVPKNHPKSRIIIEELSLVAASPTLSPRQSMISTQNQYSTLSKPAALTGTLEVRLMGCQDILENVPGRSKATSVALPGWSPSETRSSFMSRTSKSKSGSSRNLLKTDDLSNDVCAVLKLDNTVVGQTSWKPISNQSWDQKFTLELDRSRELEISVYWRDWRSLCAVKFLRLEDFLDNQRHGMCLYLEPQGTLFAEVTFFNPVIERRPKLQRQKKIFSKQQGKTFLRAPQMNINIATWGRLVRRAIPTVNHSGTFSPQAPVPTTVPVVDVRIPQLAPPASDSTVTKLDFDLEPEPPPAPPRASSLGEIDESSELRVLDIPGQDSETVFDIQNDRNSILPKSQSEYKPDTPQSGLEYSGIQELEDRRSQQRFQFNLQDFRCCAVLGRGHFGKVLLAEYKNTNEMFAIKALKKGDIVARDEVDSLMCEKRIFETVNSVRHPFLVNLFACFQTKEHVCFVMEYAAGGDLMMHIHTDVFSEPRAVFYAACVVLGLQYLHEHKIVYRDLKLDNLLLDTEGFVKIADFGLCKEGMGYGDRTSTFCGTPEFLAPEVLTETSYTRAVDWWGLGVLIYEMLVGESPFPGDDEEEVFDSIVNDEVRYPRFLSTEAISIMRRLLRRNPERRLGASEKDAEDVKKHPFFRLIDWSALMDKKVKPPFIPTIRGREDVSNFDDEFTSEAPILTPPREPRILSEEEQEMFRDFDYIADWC
Text: as §1

The target of the next assay is Src (Homo sapiens, UniProt P12931). As to the kind of experiment: Kinase profiling Src. The following applies: read-out: residual kinase activity, Src.
Text: as §1

The target in the next assay is PKBa (Homo sapiens, UniProt P31749). The experiment in a line: Kinase profiling PKBa. The settings on record: read-out: residual kinase activity, PKBa.
PKBa, sequence (P31749 whole entry): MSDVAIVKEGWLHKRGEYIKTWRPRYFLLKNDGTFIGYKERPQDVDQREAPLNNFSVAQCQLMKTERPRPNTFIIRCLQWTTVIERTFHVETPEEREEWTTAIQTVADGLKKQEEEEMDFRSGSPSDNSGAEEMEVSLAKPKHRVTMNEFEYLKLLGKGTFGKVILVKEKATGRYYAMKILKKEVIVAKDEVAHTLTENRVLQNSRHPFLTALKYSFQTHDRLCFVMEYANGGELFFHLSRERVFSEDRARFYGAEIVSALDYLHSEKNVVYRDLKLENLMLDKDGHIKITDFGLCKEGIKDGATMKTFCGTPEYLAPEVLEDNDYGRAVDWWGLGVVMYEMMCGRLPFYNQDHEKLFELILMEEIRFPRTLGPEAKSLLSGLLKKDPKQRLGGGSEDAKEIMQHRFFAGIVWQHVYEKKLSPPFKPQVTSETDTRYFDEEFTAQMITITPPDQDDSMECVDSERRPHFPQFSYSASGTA
Text: as §1

Another assay has as its target JNK3 (Homo sapiens, UniProt P53779). As to the kind of experiment: Kinase profiling JNK3. The following applies: read-out: residual kinase activity, JNK3.
Text: as §1

The target in a further assay is T1, PDK1 (Homo sapiens, UniProt O15530).
T1 sequence (O15530 1-556): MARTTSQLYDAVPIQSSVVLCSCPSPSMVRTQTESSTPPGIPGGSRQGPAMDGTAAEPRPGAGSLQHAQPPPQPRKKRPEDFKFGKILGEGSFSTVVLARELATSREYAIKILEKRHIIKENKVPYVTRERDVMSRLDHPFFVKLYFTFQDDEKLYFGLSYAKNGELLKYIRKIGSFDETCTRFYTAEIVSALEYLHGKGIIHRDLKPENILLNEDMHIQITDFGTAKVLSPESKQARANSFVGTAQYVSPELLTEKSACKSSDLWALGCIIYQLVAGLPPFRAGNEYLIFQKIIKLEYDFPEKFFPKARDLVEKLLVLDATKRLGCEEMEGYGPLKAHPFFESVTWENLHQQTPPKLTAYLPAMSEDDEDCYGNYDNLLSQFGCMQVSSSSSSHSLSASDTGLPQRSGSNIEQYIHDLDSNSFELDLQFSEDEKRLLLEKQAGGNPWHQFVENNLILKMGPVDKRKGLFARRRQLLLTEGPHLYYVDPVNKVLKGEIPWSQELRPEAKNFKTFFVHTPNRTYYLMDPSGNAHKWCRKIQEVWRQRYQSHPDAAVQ
The experiment in a line: Kinase profiling PDK1. The settings on record: read-out: residual kinase activity, PDK1.
Text: as §1

The next assay has as its system VEG-FR. As to the kind of experiment: Kinase profiling VEG-FR.
Text: as §1

The target of another assay is PIM1 (Homo sapiens, UniProt P11309). The experiment in a line: Kinase profiling PIM1. The settings on record: read-out: residual kinase activity, PIM1.
PIM1, sequence (P11309 whole entry, species assumed): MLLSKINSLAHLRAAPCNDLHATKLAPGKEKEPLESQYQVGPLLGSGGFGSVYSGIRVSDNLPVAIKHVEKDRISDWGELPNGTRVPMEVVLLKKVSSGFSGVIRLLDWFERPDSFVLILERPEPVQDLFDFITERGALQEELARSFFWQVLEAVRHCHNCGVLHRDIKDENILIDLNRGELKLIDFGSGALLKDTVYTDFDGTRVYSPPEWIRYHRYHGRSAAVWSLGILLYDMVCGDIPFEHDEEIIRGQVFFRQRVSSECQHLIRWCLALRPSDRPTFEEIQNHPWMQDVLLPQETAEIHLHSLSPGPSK
Text: as §1

The target of another assay is TrkA (Homo sapiens, UniProt P04629). The experiment in a line: Kinase profiling TrkA. The settings on record: read-out: residual kinase activity, TrkA.
Text: as §1

The next assay deals with BTK (Homo sapiens, UniProt Q06187). The experiment in a line: Kinase profiling BTK. The following applies: read-out: residual kinase activity, BTK.
BTK, sequence (Q06187 whole entry, species assumed): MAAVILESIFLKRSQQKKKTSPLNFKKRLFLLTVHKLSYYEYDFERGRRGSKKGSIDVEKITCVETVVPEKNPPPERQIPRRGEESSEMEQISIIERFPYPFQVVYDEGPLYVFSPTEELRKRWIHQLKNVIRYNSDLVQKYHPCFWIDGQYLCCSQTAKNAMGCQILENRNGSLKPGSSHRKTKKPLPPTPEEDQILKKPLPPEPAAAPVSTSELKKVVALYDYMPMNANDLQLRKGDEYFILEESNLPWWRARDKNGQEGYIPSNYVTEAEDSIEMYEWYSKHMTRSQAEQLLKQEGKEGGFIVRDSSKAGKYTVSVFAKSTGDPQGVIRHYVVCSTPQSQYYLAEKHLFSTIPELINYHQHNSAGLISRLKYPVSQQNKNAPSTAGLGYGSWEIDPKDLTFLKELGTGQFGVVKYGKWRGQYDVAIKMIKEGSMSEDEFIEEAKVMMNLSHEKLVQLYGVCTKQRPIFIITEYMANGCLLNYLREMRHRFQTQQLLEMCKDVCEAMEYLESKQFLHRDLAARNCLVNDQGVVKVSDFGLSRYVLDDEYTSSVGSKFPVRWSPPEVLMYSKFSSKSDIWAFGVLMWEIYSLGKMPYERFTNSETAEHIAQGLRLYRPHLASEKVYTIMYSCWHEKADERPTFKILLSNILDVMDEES
Text: as §1

In a further assay the target is MKK1 (Homo sapiens, UniProt Q02750). The experiment in a line: Kinase profiling MKK1. The settings on record: read-out: residual kinase activity, MKK1.
MKK1, sequence (Q02750 whole entry, species assumed): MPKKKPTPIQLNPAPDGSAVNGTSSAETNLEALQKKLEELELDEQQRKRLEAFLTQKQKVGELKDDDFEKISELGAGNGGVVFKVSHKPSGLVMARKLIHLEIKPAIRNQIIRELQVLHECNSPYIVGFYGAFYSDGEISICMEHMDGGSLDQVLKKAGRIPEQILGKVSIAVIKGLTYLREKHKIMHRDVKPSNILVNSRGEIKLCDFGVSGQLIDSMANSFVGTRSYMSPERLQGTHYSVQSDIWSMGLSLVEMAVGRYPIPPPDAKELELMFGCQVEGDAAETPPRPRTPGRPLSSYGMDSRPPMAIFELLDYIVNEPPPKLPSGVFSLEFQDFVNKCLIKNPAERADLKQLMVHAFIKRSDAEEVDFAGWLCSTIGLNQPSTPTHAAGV
Text: as §1

The next assay deals with T2, IRAK4 (Homo sapiens, UniProt Q9NWZ3).
T2 sequence (Q9NWZ3 1-460): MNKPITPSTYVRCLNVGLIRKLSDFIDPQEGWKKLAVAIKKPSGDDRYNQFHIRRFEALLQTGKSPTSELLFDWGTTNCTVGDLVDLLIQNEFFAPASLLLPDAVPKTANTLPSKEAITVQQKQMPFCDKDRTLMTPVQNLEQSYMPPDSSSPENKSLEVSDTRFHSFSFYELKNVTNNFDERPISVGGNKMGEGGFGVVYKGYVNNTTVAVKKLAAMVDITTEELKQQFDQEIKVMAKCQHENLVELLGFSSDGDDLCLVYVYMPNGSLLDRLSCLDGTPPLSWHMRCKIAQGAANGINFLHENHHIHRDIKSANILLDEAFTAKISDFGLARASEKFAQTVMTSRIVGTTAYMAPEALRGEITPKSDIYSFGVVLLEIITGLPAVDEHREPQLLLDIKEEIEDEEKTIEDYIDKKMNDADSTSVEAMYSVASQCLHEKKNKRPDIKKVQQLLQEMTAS
The experiment in a line: Kinase profiling IRAK4. The settings on record: read-out: residual kinase activity, IRAK4.
Text: as §1

The next assay addresses MARK3 (Homo sapiens, UniProt P27448). The experiment in a line: Kinase profiling MARK3. The following applies: read-out: residual kinase activity, MARK3.
Text: as §1

The target of another assay is MKK2 (Homo sapiens, UniProt P36507). The experiment in a line: Kinase profiling MKK2. The following applies: read-out: residual kinase activity, MKK2.
MKK2, sequence (P36507 whole entry, species assumed): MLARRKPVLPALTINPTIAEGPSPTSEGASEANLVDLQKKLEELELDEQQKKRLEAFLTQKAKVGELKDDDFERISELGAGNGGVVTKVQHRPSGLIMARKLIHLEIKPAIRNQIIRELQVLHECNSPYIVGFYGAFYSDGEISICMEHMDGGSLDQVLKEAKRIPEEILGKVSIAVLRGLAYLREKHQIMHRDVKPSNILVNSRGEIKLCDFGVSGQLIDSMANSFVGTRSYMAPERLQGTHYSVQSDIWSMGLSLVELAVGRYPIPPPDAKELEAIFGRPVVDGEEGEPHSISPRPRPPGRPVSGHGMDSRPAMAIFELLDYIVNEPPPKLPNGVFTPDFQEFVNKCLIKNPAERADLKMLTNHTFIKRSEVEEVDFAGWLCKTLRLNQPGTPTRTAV
Text: as §1

For the next assay, the target named is T3, SGK1 (Homo sapiens, UniProt O00141).
T3 sequence (O00141 1-431): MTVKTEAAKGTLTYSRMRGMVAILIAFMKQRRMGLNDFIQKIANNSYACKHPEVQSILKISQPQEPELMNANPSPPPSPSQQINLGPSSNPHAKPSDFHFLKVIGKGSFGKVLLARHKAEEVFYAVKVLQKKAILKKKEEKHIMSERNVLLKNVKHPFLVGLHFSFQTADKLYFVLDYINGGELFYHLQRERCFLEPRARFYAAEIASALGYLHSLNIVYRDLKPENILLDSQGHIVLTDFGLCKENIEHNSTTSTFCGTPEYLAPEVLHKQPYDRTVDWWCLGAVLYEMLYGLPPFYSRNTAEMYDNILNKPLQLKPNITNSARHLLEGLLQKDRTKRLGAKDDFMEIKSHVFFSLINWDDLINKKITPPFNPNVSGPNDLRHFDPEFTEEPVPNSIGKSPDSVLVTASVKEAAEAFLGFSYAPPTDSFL
As to the kind of experiment: Kinase profiling SGK1. The settings on record: read-out: residual kinase activity, SGK1.
Text: as §1

The target in another assay is p38a MAPK (Homo sapiens, UniProt Q16539). As to the kind of experiment: Kinase profiling p38a MAPK. The following applies: read-out: residual kinase activity, p38a MAPK.
p38a MAPK, sequence (Q16539 whole entry): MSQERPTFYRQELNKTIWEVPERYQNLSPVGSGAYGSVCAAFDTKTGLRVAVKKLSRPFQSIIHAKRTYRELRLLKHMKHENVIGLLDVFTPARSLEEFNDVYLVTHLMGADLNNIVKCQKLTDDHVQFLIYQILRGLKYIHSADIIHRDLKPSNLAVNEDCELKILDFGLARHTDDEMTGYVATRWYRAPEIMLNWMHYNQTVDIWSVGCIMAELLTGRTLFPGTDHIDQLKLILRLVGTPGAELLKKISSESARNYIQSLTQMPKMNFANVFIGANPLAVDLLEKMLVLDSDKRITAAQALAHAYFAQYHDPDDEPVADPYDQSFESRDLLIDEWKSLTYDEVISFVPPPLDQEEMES
Text: as §1

The next assay deals with SRPK1 (Homo sapiens, UniProt Q96SB4). As to the kind of experiment: Kinase profiling SRPK1. The settings on record: read-out: residual kinase activity, SRPK1.
Text: as §1

The next assay deals with EF2K (Homo sapiens, UniProt O00418). The experiment in a line: Kinase profiling EF2K. The following applies: read-out: residual kinase activity, EF2K.
Text: as §1

[1] abbreviates: 100 micromolar inhibitor concentration, 100 is no change.
[2] abbreviates: 100 micromolar inhibitor, 100 = no change.

RIPK2, sequence (O43353 whole entry, species assumed): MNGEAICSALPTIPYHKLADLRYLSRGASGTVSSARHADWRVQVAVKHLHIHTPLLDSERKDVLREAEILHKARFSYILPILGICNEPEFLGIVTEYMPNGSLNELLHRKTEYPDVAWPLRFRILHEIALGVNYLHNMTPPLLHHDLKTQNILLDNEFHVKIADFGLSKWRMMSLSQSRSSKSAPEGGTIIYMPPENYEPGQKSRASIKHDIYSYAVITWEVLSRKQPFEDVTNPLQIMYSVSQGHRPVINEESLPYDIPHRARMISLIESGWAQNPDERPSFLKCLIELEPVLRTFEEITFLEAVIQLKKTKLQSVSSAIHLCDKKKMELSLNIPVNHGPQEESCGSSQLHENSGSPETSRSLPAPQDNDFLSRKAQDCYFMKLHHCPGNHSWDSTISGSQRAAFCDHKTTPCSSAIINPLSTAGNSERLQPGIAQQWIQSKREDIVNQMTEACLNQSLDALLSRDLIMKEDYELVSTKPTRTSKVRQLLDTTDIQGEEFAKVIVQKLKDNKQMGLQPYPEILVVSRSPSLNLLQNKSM
p38b MAPK, sequence (Q15759 whole entry): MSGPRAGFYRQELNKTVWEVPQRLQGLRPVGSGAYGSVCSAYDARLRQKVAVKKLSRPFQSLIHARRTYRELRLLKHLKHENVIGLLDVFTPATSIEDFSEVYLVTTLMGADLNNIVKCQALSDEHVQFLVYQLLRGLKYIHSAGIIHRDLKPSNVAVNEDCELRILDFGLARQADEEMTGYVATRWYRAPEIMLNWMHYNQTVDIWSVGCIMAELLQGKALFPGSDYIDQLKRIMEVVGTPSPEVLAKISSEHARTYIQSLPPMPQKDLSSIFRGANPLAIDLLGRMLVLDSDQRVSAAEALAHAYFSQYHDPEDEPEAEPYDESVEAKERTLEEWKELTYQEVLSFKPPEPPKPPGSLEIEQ
JNK3, sequence (P53779 whole entry, species assumed): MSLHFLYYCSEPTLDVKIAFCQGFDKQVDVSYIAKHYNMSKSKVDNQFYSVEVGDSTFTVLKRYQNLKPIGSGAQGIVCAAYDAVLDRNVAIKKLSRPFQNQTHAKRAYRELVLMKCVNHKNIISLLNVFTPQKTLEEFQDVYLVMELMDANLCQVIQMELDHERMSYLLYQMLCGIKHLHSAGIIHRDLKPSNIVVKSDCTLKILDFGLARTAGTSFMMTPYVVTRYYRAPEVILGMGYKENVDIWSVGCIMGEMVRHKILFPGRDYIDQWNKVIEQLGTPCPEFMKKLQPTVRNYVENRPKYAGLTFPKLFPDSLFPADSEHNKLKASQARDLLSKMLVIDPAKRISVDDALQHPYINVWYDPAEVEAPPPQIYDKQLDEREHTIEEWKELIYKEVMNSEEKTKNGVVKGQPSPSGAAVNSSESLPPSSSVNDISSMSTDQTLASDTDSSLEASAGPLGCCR

For `CC(=O)Nc1nc2ccc(O)cc2s1` [Compound 01-71], the remaining activity at 100 µM worked out at 22% at RIPK2 (setting [1]); 106% on p38b MAPK (setting [1]); 36% at PRK2 (setting [1]); 57% at Src (setting [1]); 87% at PKBa; 66% at JNK3 (setting [1]). In addition, the remaining activity at 100 µM is 63% at PDK1 (setting [1]); 19% at PIM1 (setting [1]); 42% on TrkA (setting [1]); 69% on BTK (setting [1]); 35% at MKK1 (setting [1]); 13% at IRAK4 (setting [1]). Also, the remaining activity at 100 µM at MARK3 (setting [1]) was determined as 46%; on MKK2 (setting [1]), 48%; on SGK1 (setting [1]), 33%; at p38a MAPK (setting [1]), 86%; on SRPK1 (setting [1]) it was 44%; on EF2K (setting [1]), 75%. In addition, in the assay on VEG-FR (setting [1]), the “residual kinase activity, VEG-FR” value was found to be 9.
With `CC(=O)Nc1nc2ccc(C(F)(F)F)cc2s1` [Compound 01-90], the remaining activity at 100 µM came out at 23% on RIPK2 (setting [1]); 82% at p38b MAPK (setting [1]); 94% at PRK2 (setting [1]); 63% on Src (setting [1]); 104% at PKBa; 76% at JNK3 (setting [1]). The remaining activity at 100 µM on PDK1 (setting [1]) stood at 93%; on PIM1 (setting [1]) it was 71%; on TrkA (setting [1]), 45%; on BTK (setting [1]), 73%; at MKK1 (setting [1]) it was 80%; at IRAK4 (setting [1]), 12%. Moreover, the remaining activity at 100 µM at MARK3 (setting [1]) was 61%; on MKK2 (setting [1]), 73%; at SGK1 (setting [1]) it was 69%; at p38a MAPK (setting [1]), 106%; on SRPK1 (setting [1]) it was 41%; at EF2K (setting [1]) it was 103%. Moreover, the “residual kinase activity, VEG-FR” value with VEG-FR (setting [1]) was determined as 8.
Regarding `CC(=O)Nc1nc2ccc(C#N)cc2s1` [Compound 01-94], the remaining activity at 100 µM on RIPK2 (setting [1]) is 17%; at p38b MAPK (setting [1]), 100%; on PRK2 (setting [1]), 70%; at Src (setting [1]), 94%; at PKBa, 95%; at JNK3 (setting [1]), 53%. Further, the remaining activity at 100 µM came to 97% on PDK1 (setting [1]); 26% at PIM1 (setting [1]); 87% on TrkA (setting [1]); 98% on BTK (setting [1]); 34% on MKK1 (setting [1]); 10% at IRAK4 (setting [1]). The remaining activity at 100 µM on MARK3 (setting [1]) came to 50%; on MKK2 (setting [1]), 54%; on SGK1 (setting [1]), 40%; at p38a MAPK (setting [1]), 102%; at SRPK1 (setting [1]), 47%; on EF2K (setting [1]), 98%. Also, in the assay on VEG-FR (setting [1]), the “residual kinase activity, VEG-FR” value worked out at 11.
Turning to `CC(=O)Nc1cccc(NC(=O)c2nc3ccc(O)cc3s2)c1` [Compound 03-07, N-(3-acetamidophenyl)-6-hydroxybenzo[d]thiazole-2-carboxamide], the remaining activity at 100 µM amounted to 18% on RIPK2 (setting [2]); 96% at p38b MAPK (setting [2]); 74% at PRK2 (setting [2]); 101% at Src (setting [2]); 103% at PKBa (setting [2]); 50% on JNK3 (setting [2]). For the same compound, the remaining activity at 100 µM was 72% on PDK1 (setting [2]); 25% on PIM1 (setting [2]); 59% on TrkA (setting [2]); 32% at BTK (setting [2]); 85% at MKK1 (setting [2]); 74% on IRAK4 (setting [2]). The remaining activity at 100 µM at MARK3 (setting [2]) worked out at 72%; at MKK2 (setting [2]), 88%; at SGK1 (setting [2]), 64%; at p38a MAPK (setting [2]), 93%; at SRPK1 (setting [2]), 27%; at EF2K (setting [2]), 91%. In addition, the “residual kinase activity, VEG-FR” value in the assay with VEG-FR (setting [2]) stood at 28.

For the origin of these results see patent US10231954B2, “Neurodegenerative therapies” (LYTIX BIOPHARMA AS, priority 2014, dated 2019).
